Residues, ends and D or L forms follow the SMILES beside them.
These molecules were tested against HCV glycoprotein E1E2-mediated membrane fusion (Hepatitis C virus genotype 1a, UniProt P27958) (assay: cell-based). Conditions: not given.
HCV glycoprotein E1E2-mediated membrane fusion, sequence (P27958 384-746): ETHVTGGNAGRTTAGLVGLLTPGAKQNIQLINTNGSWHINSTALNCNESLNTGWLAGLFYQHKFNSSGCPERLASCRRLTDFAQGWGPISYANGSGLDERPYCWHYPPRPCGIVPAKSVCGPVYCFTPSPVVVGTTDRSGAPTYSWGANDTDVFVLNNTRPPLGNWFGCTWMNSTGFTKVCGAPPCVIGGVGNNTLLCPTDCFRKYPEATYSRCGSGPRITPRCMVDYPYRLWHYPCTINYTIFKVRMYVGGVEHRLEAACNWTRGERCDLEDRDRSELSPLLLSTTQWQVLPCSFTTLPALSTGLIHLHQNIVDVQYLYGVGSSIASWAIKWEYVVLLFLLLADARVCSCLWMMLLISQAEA
HCV glycoprotein E1E2-mediated membrane fusion, sequence (P27958 192-383): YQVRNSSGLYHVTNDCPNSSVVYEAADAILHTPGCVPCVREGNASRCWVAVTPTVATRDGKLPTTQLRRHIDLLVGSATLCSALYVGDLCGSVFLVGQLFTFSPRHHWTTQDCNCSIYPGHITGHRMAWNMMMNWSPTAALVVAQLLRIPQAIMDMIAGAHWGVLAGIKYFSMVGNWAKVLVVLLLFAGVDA
Type: cell-based, Hepatitis C virus (strain H77)
In the case of CC[C@H](C)[C@H](NC(=O)[C@H](C)NC(=O)[C@H](Cc1c[nH]c2ccccc12)NC(=O)[C@H](CO)NC(=O)[C@H](C)NC(=O)[C@@H](NC(=O)[C@H](CO)NC(=O)[C@H](CO)NC(=O)CNC(=O)[C@@H](NC(=O)CNC(=O)[C@H](Cc1ccc(O)cc1)NC(=O)[C@H](CC(C)C)NC(=O)[C@H](Cc1ccc(O)cc1)NC(=O)[C@H](CCC(N)=O)NC(=O)[C@@H](NC(=O)[C@H](CC(=O)O)NC(=O)[C@@H](NC(=O)[C@@H](NC(=O)[C@H](CC(N)=O)NC(=O)[C@H](CCC(N)=O)NC(=O)[C@H](Cc1c[nH]cn1)NC(=O)[C@H](CC(C)C)NC(=O)[C@H](Cc1c[nH]cn1)NC(=O)[C@@H](NC(=O)[C@H](CC(C)C)NC(=O)CNC(=O)[C@@H](NC(=O)[C@H](CO)NC(=O)[C@H](CC(C)C)NC(=O)[C@H](C)NC(=O)[C@@H]1CCCN1C(=O)[C@H](CC(C)C)NC(=O)[C@@H](N)[C@@H](C)O)[C@@H](C)O)[C@@H](C)CC)[C@@H](C)CC)C(C)C)C(C)C)C(C)C)[C@@H](C)CC)C(=O)N[C@@H](CCCCN)C(=O)O [E28] (H-TLPALSTGLIHLHQNIVDVQYLYGVGSSIASWAIK-OH; N-terminus and C-terminus assumed), the EC50 is reported as greater than 20 µM.

Same assay, conditions: Cre/stop fusion system, peptide 1 µM, luciferase divided by solvent control (0.5% DMSO)
In the case of “SLNTGFLAALFYVHKFNSSGCPERMASCSP [HCV-17, 30-mer of overlapping E1E2 peptide library]”, the “% of fusion” value is reported as 66.7%.
For “VTGGTM AKNTLGI TSLFSP GSSQKIQLVNT [HCV-14, 30-mer of overlapping E1E2 peptide library]”, the “% of fusion” value was 69.6%.
“FGVP TYSWGENE TDVLLLNNTRPP QGNWFG [HCV-23, 30-mer of overlapping E1E2 peptide library]” was tested, and the “% of fusion” value was 145.0%.
“LIVMLLF AGVDGGTYVTGGTMAKNTLGI TS [HCV-13, 30-mer of overlapping E1E2 peptide library]” was tested, and the “% of fusion” value was 60.1%.
“SHSSDQRP YCWHYAP RP CGI VP AAQVC GP V [HCV-20, 30-mer of overlapping E1E2 peptide library]” was tested, and the “% of fusion” value was 65.8%.
“QAVVDMVAGAHWGVLAGLAYYSMVGNWAKV [HCV-11, 30-mer of overlapping E1E2 peptide library]” was tested, and the “% of fusion” value was 121.6%.
In the case of “WQVLP CSFTTLP ALS TGLIHLHQNVVDVQY [HCV-33, 30-mer of overlapping E1E2 peptide library]”, the “% of fusion” value is reported as 9.7%.
“PPCNIGGI GNKTLTCP TDCFRKHP EATYTK [HCV-26, 30-mer of overlapping E1E2 peptide library]” was tested, and the “% of fusion” value was 121.6%.
In the case of “FNSSGCPERMASCSPIDAFAQGWGPITYNE [HCV-18, 30-mer of overlapping E1E2 peptide library]”, the “% of fusion” value is reported as 70.8%.
With “FKVRMYVGGVEHRLE AACNWTRGERCNLED [HCV-30, 30-mer of overlapping E1E2 peptide library]” the “% of fusion” value was 99.6%.
For “GAAALCSAMYV GDLC GSVFLVAQLF TFSP R [HCV-6, 30-mer of overlapping E1E2 peptide library]”, the “% of fusion” value was 81.5%.
For “P YRLWHYP CTVNFTIFKVRMYVGGVEHRLE [HCV-29, 30-mer of overlapping E1E2 peptide library]”, the “% of fusion” value was 83.2%.
With “TGLIHLHQNVVDVQYLYGI GSAVVSFAIKW [HCV-34, 30-mer of overlapping E1E2 peptide library]” the “% of fusion” value was 24.9%.
With “RP CGIVP AAQVC GP VYCFTP SPVVVGTTDR [HCV-21, 30-mer of overlapping E1E2 peptide library]” the “% of fusion” value was 63.7%.
“CTWMNSTGF TKTC GGP P CNIGGI GNKTLTC [HCV-25, 30-mer of overlapping E1E2 peptide library]” was tested, and the “% of fusion” value was 87.4%.
For “YEVRNVSGVYHVTNDCSNAS IVYEAADMIM [HCV-1, 30-mer of overlapping peptide library covering full-length E1E2 of HCV strain H77]”, the “% of fusion” value was 56.4%.
In the case of “SP TAALVVSQLLRIP QAVVDMVAGAHWGVL [HCV-10, 30-mer of overlapping E1E2 peptide library]”, the “% of fusion” value is reported as 78.8%.
In the case of “AAC NW TR GERCN LEDRDRS E LS P LLLS TTE [HCV-31, 30-mer of overlapping E1E2 peptide library]”, the “% of fusion” value is reported as 56.9%.
With “RHETVQDCNCSIYP GHVTGHRMAWDMMMNW [HCV-8, 30-mer of overlapping E1E2 peptide library]” the “% of fusion” value was 76.9%.
In the case of “CGS GP WLTP RCLVHYP YRLWHYP CTVNFTI [HCV-28, 30-mer of overlapping E1E2 peptide library]”, the “% of fusion” value is reported as 82.2%.
“RCWVALTP TLAARNASVP TTTIRRHVDLLV [HCV-4, 30-mer of overlapping E1E2 peptide library]” was tested, and the “% of fusion” value was 85.2%.
“GSVFLVAQLFTFSPRRHETVQDCNCSIYPG [HCV-7, 30-mer of overlapping E1E2 peptide library]” was tested, and the “% of fusion” value was 85.5%.
For “EYVLLLFLLLADARVCACLWMMLLIAQAEA [HCV-36, 30-mer of overlapping E1E2 peptide library]”, the “% of fusion” value was 10.7%.
With “P TDCF RKHP EATY TKC GS GP W LTP RCLV HY [HCV-27, 30-mer of overlapping E1E2 peptide library]” the “% of fusion” value was 65.1%.
In the case of “CSNASIVYEAADMIMHTP GC VP CVRENNSS [HCV-2, 30-mer of overlapping E1E2 peptide library]”, the “% of fusion” value is reported as 80.8%.
For “RDRS ELS P LLLS TTEW QV LP CS F TTLP ALS [HCV-32, 30-mer of overlapping E1E2 peptide library]”, the “% of fusion” value was 11 . 2%.
With “HVTGHRMAWDMMMNWSP TAALVVSQLLRIP [HCV-9, 30-mer of overlapping E1E2 peptide library]” the “% of fusion” value was 56.9%.
With “YCFTP SPVVVGTTDRF GVP TYSWGENETDV [HCV-22, 30-mer of overlapping E1E2 peptide library]” the “% of fusion” value was 79.0%.
“NGS WHINR TALNCNDSLNTGFLAALFYVHK [HCV-16, 30-mer of overlapping E1E2 peptide library]” was tested, and the “% of fusion” value was 64.2%.
In the case of “HTP GCVP CVRENNSSRCWVALTP TLAAR NA [HCV-3, 30-mer of overlapping E1E2 peptide library]”, the “% of fusion” value is reported as 64.3%.
In the case of “AGLAYYSMVGNWAKVLIVMLLF AGVDGGTY [HCV-12, 30-mer of overlapping E1E2 peptide library]”, the “% of fusion” value is reported as 122.8%.
In the case of “IDAF AQGWGP ITYNESHSSDQRP YCWHYAP [HCV-19, 30-mer of overlapping E1E2 peptide library]”, the “% of fusion” value is reported as 129.8%.
In the case of “LYGIGS AVVSFAIKWEYVLLLFLLLADARV [HCV-35, 30-mer of overlapping E1E2 peptide library]”, the “% of fusion” value is reported as 40.0%.
With “LFSP GSSQKIQLVNTNGS WHI NRTALNCND [HCV-15, 30-mer of overlapping E1E2 peptide library]” the “% of fusion” value was 56.0%.
With “SVP TTTIRRHVDLLV GAAALC SAMYVGDLC [HCV-5, 30-mer of overlapping E1E2 peptide library]” the “% of fusion” value was 84.7%.

These molecules were tested on HCVcc (Jc1-luc) (assay: not given). Conditions: Huh7.5.1 cells, various concentration ratios, CalcuSyn.
With COc1ccc2c(O[C@@H]3C[C@H]4C(=O)N[C@]5(C(=O)NS(=O)(=O)C6CC6)C[C@H]5/C=C\CCCCN(C)C(=O)[C@@H]4C3)cc(-c3nc(C(C)C)cs3)nc2c1C [Simeprevir] the “effect on inhibition of HCV infection in combination with E27” value (“effect on inhibition of HCV infection” for short) was “slight antagonism”.
In the case of CC(C)OC(=O)[C@H](C)N[P@](=O)(OC[C@H]1O[C@@H](n2ccc(=O)[nH]c2=O)[C@](C)(F)[C@@H]1O)Oc1ccccc1 [Sofosbuvir], the “effect on inhibition of HCV infection” value is reported as “slight antagonism”.
For CCC[C@H](NC(=O)[C@@H]1[C@H]2CCC[C@H]2CN1C(=O)[C@@H](NC(=O)[C@@H](NC(=O)c1cnccn1)C1CCCCC1)C(C)(C)C)C(=O)C(=O)NC1CC1 [Telaprevir], the “effect on inhibition of HCV infection” value was “slightly synergistic trend”.
With NC(=O)c1ncn([C@@H]2O[C@H](CO)[C@@H](O)[C@H]2O)n1 [Ribavirin] the “effect on inhibition of HCV infection” value was “slightly synergistic trend”.
